Assays:
photosystem II (PS II) = target: T1, photosystem II (PS II) (Spinacia oleracea, UniProt P69560); assay: Measurement of the PS II activity in thylakoid membranes (DCPIP reduction); type: biochemical; details: 100 μM test compound, spinach thylakoid membranes, DCPIP 120 μM, 10 min at 22° C. with exposure to light; read-out: Effect (inhibition of PS II activity)
T1 construct: the chloroplasts were osmotically ruptured and the thylakoid membranes were then obtained by centrifugation; from tissue; host or cells: fresh spinach leaves; thylakoid membranes isolated from chloroplasts
Experimental: Cooled fresh spinach leaves were comminuted and homogenized in 50 mM phosphate buffer, pH 6.8. 10 mM KCl, 0.34 M sucrose (sucrose buffer) (blender, 1 g of plant material/ml). The homogenate was subsequently filtered through 4 layers of Miracloth and the chloroplasts were isolated by centrifugation, i.e. 10 min of centrifugation at 4400×g (4° C.). The sediment was suspended in 25 ml of sucrose buffer and re-centrifuged for 10 min at 4400×g (4° C.). The sediment was then suspended in 40 ml of 50 mM phosphate buffer, pH 6.8, 10 mM KCl, without sucrose. In this step, the chloroplasts were osmotically ruptured and the thylakoid membranes were then obtained by centrifugation (10 min, 4400×g, 4° C.). The membrane sediment was finally suspended in 20 ml of 50 mM phosphate buffer, pH 6.8, 10 mM KCl. Following protein determination and activity determination, the membrane suspension was divided into aliquots and frozen in liquid nitrogen. The aliquots were stored at −80° C. Under these conditions, the photosystem II preparation was storage stable for at least three months. The activity determination of photosystem II (PS II) was then carried out using the following test principle:
The electron transfer from PS II to an artificial electron acceptor, 2,6-dichlorophenolindophenol (DCPIP), was measured with exposure to light. The concentration of the blue oxidized form of DCPIP was determined spectrophotometrically at wavelength λ=595 nm. […] The activity determination was carried out in microtiter plates (96 cavities) in a reaction volume of 200 μl. Here, 155 μl of dilute membrane suspension were initially charged in 50 mM of phosphate buffer, pH 6.8, 10 mM KCl. Depending on the activity of the PS II preparation, the dilution was adjusted such that the measurement of the decrease in absorption (λ=595 nm) was linear for at least 10 min. In each case 5 μl solution of the test compounds of a concentration of 100 μM in DMSO were added to the enzyme suspension; controls contained 5 μl DMSO; the final concentration of DMSO in the reaction batch was thus 2.5% (v/v); this concentration had no adverse effect on the enzymatic activity. On each microtiter plate, a known PS II inhibitor, for example metribuzin, was used as standard, which allowed the quality of the PS II test to be assessed. The reaction was started by addition of 40 μl DCPIP solution (600 μM in distilled water); the final concentration of DCPIP was 120 μM. Measurement of absorption was carried out over a period of 10 min at 22° C. and with exposure to light. Using metribuzin as comparative substance, the results for the efficacy of the compounds of the general formula (I) at 100 μM are stated in the table below using the following classification: ++++ (inhibition≥90%), +++ ([…]≥70%), ++ (70%>inhibition≥50%), + (50%>inhibition≥30%).

Abutilon theophrasti [1] = assay: Post-emergence herbicidal action; type: in vivo; details: Abutilon theophrasti, 504 h, about 3 weeks after treatment, read-out: Abutilon theophrasti, herbicidal activity rated visually
Experimental: (§1) Seeds of monocotyledonous and dicotyledonous weeds and crop plants were placed in sandy loam in plastic or wood-fiber pots, covered with soil and cultivated in a greenhouse under controlled growth conditions. 2 to 3 weeks after sowing, the test plants were treated at the one-leaf stage. The compounds of the invention, formulated in the form of wettable powders (WP) or as emulsion concentrates (EC), were then sprayed onto the green parts of the plants as aqueous suspension or emulsion with addition of 0.5% additive at a water application rate of 600 l/ha (converted). After the test plants had been kept in the greenhouse under optimum growth conditions for about 3 weeks, the activity of the preparations was rated visually in comparison to untreated controls. For example, 100% activity=the plants have died, 0% activity=like control plants. Tables A1 to A12 below show the effects of selected compounds of the general formula (I) according to Tables I.1 to I.44 on various harmful plants and an application rate corresponding to 1280 g/ha or 320 g/ha, which were obtained by the experimental procedure mentioned above.

Stellaria media [2] = assay: Post-emergence herbicidal action; type: in vivo; details: Stellaria media, 504 h, about 3 weeks after treatment, read-out: Stellaria media, herbicidal activity rated visually
Experimental: as §1

Viola tricolor [3] = assay: Post-emergence herbicidal action; type: in vivo; details: 504 h, about 3 weeks after treatment, read-out: Viola tricolor, herbicidal activity rated visually
Experimental: as §1

Matricaria inodora [4] = assay: Post-emergence herbicidal action; type: in vivo; details: about 3 weeks after treatment
Experimental: as §1

Pharbitis purpurea [5] = assay: Post-emergence herbicidal action; type: in vivo; details: about 3 weeks after treatment
Experimental: as §1

Amaranthus retroflexus [6] = assay: Post-emergence herbicidal action; type: in vivo; details: about 3 weeks after treatment
Experimental: as §1

Setaria viridis [7] = assay: Post-emergence herbicidal action; type: in vivo; details: Setaria viridis, 504 h, about 3 weeks after treatment, read-out: Setaria viridis, herbicidal activity rated visually
Experimental: as §1

Stellaria media [8] = assay: Pre-emergence herbicidal action; type: in vivo; details: Stellaria media, 504 h, after about 3 weeks, read-out: Stellaria media, herbicidal effect scored visually
Excerpt: (§2) Seeds of monocotyledonous and dicotyledonous weed plants and crop plants were placed in plastic or organic planting pots and covered with soil. The compounds of the invention, formulated in the form of wettable powders (WP) or as emulsion concentrates (EC), were then applied onto the surface of the covering soil as aqueous suspension or emulsion with addition of 0.5% additive at a water application rate of 600 l/ha (converted). After the treatment, the pots were placed in a greenhouse and kept under good growth conditions for the test plants. After about 3 weeks, the effect of the preparations was scored visually in comparison with untreated controls as percentages. For example, 100% activity=the plants have died, 0% activity=like control plants. Tables B1 to B15 below show the effects of selected compounds of the general formula (I) according to Tables I.1 to I.44 on various harmful plants and an application rate corresponding to 1280 g/ha or 320 g/ha, which were obtained by the experimental procedure mentioned above.

Viola tricolor [9] = assay: Pre-emergence herbicidal action; type: in vivo; details: Viola tricolor, 504 h, after about 3 weeks, read-out: Viola tricolor, herbicidal effect scored visually
Excerpt: as §2

Matricaria inodora [10] = assay: Pre-emergence herbicidal action; type: in vivo; details: Tripleurospermum inodorum, 504 h, after about 3 weeks, read-out: Matricaria inodora, herbicidal effect scored visually
Excerpt: as §2

Alopecurus myosuroides [11] = assay: Pre-emergence herbicidal action; type: in vivo; details: after about 3 weeks
Excerpt: as §2

Hordeum murinum = assay: Pre-emergence herbicidal action; type: in vivo; details: 320 g/ha, after about 3 weeks
Excerpt: as §2

Polygonum convolvulus [12] = assay: Pre-emergence herbicidal action; type: in vivo; details: after about 3 weeks
Excerpt: as §2

Setaria viridis [13] = assay: Pre-emergence herbicidal action; type: in vivo; details: Setaria viridis, 504 h, after about 3 weeks, read-out: Setaria viridis, herbicidal effect scored visually
Excerpt: as §2

Alopecurus myosuroides [14] = assay: Post-emergence herbicidal action; type: in vivo; details: 1280 g/ha, about 3 weeks after treatment
Experimental: as §1

Veronica persica [15] = assay: Post-emergence herbicidal action; type: in vivo; details: about 3 weeks after treatment
Experimental: as §1

Abutilon theophrasti [16] = assay: Pre-emergence herbicidal action; type: in vivo; details: 1280 g/ha, after about 3 weeks
Excerpt: as §2

Lolium rigidum = assay: Pre-emergence herbicidal action; type: in vivo; details: 1280 g/ha, after about 3 weeks
Excerpt: as §2

Pharbitis purpurea [17] = assay: Pre-emergence herbicidal action; type: in vivo; details: 1280 g/ha, after about 3 weeks
Excerpt: as §2

Polygonum convolvulus [18] = assay: Post-emergence herbicidal action; type: in vivo; details: 1280 g/ha, about 3 weeks after treatment
Experimental: as §1

Amaranthus retroflexus [19] = assay: Pre-emergence herbicidal action; type: in vivo; details: after about 3 weeks
Excerpt: as §2

Veronica persica [20] = assay: Pre-emergence herbicidal action; type: in vivo; details: 1280 g/ha, after about 3 weeks
Excerpt: as §2

Echinochloa crus-galli [21] = assay: Post-emergence herbicidal action; type: in vivo; details: 1280 g/ha, about 3 weeks after treatment
Experimental: as §1

Echinochloa crus-galli [22] = assay: Pre-emergence herbicidal action; type: in vivo; details: 1280 g/ha, after about 3 weeks
Excerpt: as §2

Poa annua = assay: Pre-emergence herbicidal action; type: in vivo; details: 1280 g/ha, after about 3 weeks
Excerpt: as §2

CC1=C(C)C(O)N(c2nc(C3CC3)ns2)C1=O (stereo not drawn) [I.2-11, 3,4-Dimethyl-5-hydroxy-1-(3-cyclopropyl-1,2,4-thiadiazol-5-yl)-1,5-dihydro-2H-pyrrol-2-one]
100%: pest or weed control at 320 g/ha (Abutilon theophrasti [1]; 320 g/ha) | pest or weed control at 320 g/ha (Stellaria media [2]; 320 g/ha) | pest or weed control at 320 g/ha (Viola tricolor [3]; 320 g/ha) | Matricaria inodora, herbicidal activity rated visually (Matricaria inodora [4]; 320 g/ha) | Pharbitis purpurea, herbicidal activity rated visually (Pharbitis purpurea [5]; 320 g/ha) | Amaranthus retroflexus, herbicidal activity rated visually (Amaranthus retroflexus [6]; 320 g/ha) | pest or weed control at 320 g/ha (Setaria viridis [7]; 320 g/ha) | pest or weed control at 320 g/ha (Stellaria media [8]; 320 g/ha) | pest or weed control at 320 g/ha (Viola tricolor [9]; 320 g/ha) | pest or weed control at 320 g/ha (Matricaria inodora [10]) | Hordeum murinum, herbicidal effect scored visually (Hordeum murinum) | Polygonum convolvulus, herbicidal effect scored visually (Polygonum convolvulus [12]; 320 g/ha) | pest or weed control at 320 g/ha (Setaria viridis [13]; 320 g/ha)
> 90%: inhibition at 100 µM (stock) (photosystem II (PS II))
90%: Alopecurus myosuroides, herbicidal effect scored visually (Alopecurus myosuroides [11]; 320 g/ha)

CC1=C(Cl)C(=O)N(c2nc(C3CC3)ns2)C1O (stereo not drawn) [I.3-11, 3-Chloro-4-methyl-5-hydroxy-1-(3-cyclopropyl-1,2,4-thiadiazol-5-yl)-1,5-dihydro-2H-pyrrol-2-one]
90%: Matricaria inodora, herbicidal activity rated visually (Matricaria inodora [4]; 1280 g/ha) | pest or weed control at 1280 g/ha (Setaria viridis [13])
80%: Alopecurus myosuroides, herbicidal activity rated visually (Alopecurus myosuroides [14]) | Veronica persica, herbicidal activity rated visually (Veronica persica [15]; 1280 g/ha) | Abutilon theophrasti, herbicidal effect scored visually (Abutilon theophrasti [16]) | Lolium rigidum, herbicidal effect scored visually (Lolium rigidum) | Polygonum convolvulus, herbicidal effect scored visually (Polygonum convolvulus [12]; 1280 g/ha)
> 90%: inhibition at 100 µM (stock) (photosystem II (PS II))
100%: pest or weed control at 1280 g/ha (Abutilon theophrasti [1]) | pest or weed control at 1280 g/ha (Stellaria media [2]) | pest or weed control at 1280 g/ha (Viola tricolor [3]) | Pharbitis purpurea, herbicidal activity rated visually (Pharbitis purpurea [5]; 1280 g/ha) | Amaranthus retroflexus, herbicidal activity rated visually (Amaranthus retroflexus [6]; 1280 g/ha) | pest or weed control at 1280 g/ha (Stellaria media [8]) | pest or weed control at 1280 g/ha (Viola tricolor [9]) | pest or weed control at 1280 g/ha (Matricaria inodora [10]) | Alopecurus myosuroides, herbicidal effect scored visually (Alopecurus myosuroides [11]; 1280 g/ha) | Pharbitis purpurea, herbicidal effect scored visually (Pharbitis purpurea [17])

CN1CC(O)N(c2ncns2)C1=O (stereo not drawn) [I.13-1, 4-Hydroxy-1-methyl-3-[1,2,4-thiadiazol-5-yl]-imidazolidin-2-one]
80%: Alopecurus myosuroides, herbicidal activity rated visually (Alopecurus myosuroides [14]) | Veronica persica, herbicidal activity rated visually (Veronica persica [15]; 320 g/ha) | pest or weed control at 1280 g/ha (Setaria viridis [7]) | pest or weed control at 1280 g/ha (Setaria viridis [13])
100%: pest or weed control at 1280 g/ha (Abutilon theophrasti [1]) | pest or weed control at 1280 g/ha (Viola tricolor [3]) | Amaranthus retroflexus, herbicidal activity rated visually (Amaranthus retroflexus [6]; 1280 g/ha) | Polygonum convolvulus, herbicidal activity rated visually (Polygonum convolvulus [18]) | pest or weed control at 1280 g/ha (Stellaria media [8]) | pest or weed control at 1280 g/ha (Viola tricolor [9]) | Amaranthus retroflexus, herbicidal effect scored visually (Amaranthus retroflexus [19]; 320 g/ha)
90%: pest or weed control at 1280 g/ha (Stellaria media [2]) | Pharbitis purpurea, herbicidal activity rated visually (Pharbitis purpurea [5]; 1280 g/ha) | pest or weed control at 320 g/ha (Matricaria inodora [10]) | Veronica persica, herbicidal effect scored visually (Veronica persica [20])
50 to 70%: inhibition at 100 µM (stock) (photosystem II (PS II))

COC(=O)OC1C(C)=C(C)C(=O)N1c1nc(C2CC2)ns1 (stereo not drawn) [I.17-11, 3,4-Dimethyl-5-methoxycarbonyloxy-1-[3-(cyclopropyl)-1,2,4-thiadiazol-5-yl]-1,5-dihydro-2H-pyrrol-2-one]
90%: Lolium rigidum, herbicidal effect scored visually (Lolium rigidum)
100%: pest or weed control at 1280 g/ha (Abutilon theophrasti [1]) | Echinochloa crus-galli, herbicidal activity rated visually (Echinochloa crus-galli [21]) | pest or weed control at 1280 g/ha (Stellaria media [2]) | Matricaria inodora, herbicidal activity rated visually (Matricaria inodora [4]; 1280 g/ha) | Amaranthus retroflexus, herbicidal activity rated visually (Amaranthus retroflexus [6]; 1280 g/ha) | pest or weed control at 1280 g/ha (Setaria viridis [7]) | Abutilon theophrasti, herbicidal effect scored visually (Abutilon theophrasti [16]) | Echinochloa crus-galli, herbicidal effect scored visually (Echinochloa crus-galli [22]) | pest or weed control at 1280 g/ha (Stellaria media [8]) | pest or weed control at 1280 g/ha (Matricaria inodora [10]) | Amaranthus retroflexus, herbicidal effect scored visually (Amaranthus retroflexus [19]; 1280 g/ha) | pest or weed control at 1280 g/ha (Setaria viridis [13]) | Poa annua, herbicidal effect scored visually (Poa annua)

— patent US20200095241A1, “SUBSTITUTED 1,2,4-THIADIAZOLYLPYRROLONES AND 1,2,4-THIADIAZOLYLHYDANTOINS AND SALTS THEREOF AND USE THEREOF AS HERBICIDES” (Bayer CropScience Aktiengesellschaft, priority 2016, published 2020)
